From ChEMBL document CHEMBL4602729, “O-Alkyl Hydroxamates Display Potent and Selective Antileishmanial Activity” (J Med Chem, 2020)
Active and inactive are the calls of the source. The rule behind the calls is not given here.

What was measured:
Leishmania infantum [1] = experiment: Antileishmanial activity against Leishmania infantum MON-1 promastigotes infected in BALB/c mouse assessed as reduction in liver parasite load at 10 mg/kg, ip administered daily for 14 days starting from 28 days post infection using PLGA nanoparticle incorporated compound measured post last dose by Taqman qRT-PCR analysis; format: functional, organism-based
[2] = Mutagenicity in Salmonella typhimurium TA100 at 10 to 75 uM measured after 5 days in presence of S9 fraction by Ames test; format: toxicity, subcellular; details: salmonella enterica subsp. enterica serovar typhimurium, s9, 120 h
[3] = Toxicity in BALB/c mouse infected with Leishmania infantum MON-1 promastigotes at 5 to 10 mg/kg, ip administered daily for 14 days starting from 28 days post infection using gold nanoparticle incorporated compound in presence of meglumine antimoniate; format: organism-based; details: in vivo
[4] = Toxicity in BALB/c mouse infected with Leishmania infantum MON-1 promastigotes assessed as swelling of spleen at 10 to 25 mg/kg, ip administered daily for 14 days starting from 28 days post infection using gold nanoparticle incorporated compound; format: organism-based; details: in vivo
[5] = Toxicity in BALB/c mouse infected with Leishmania infantum MON-1 promastigotes assessed as swelling of liver at 10 to 25 mg/kg, ip administered daily for 14 days starting from 28 days post infection using PLGA nanoparticle incorporated compound; format: organism-based; details: in vivo
Cytochrome P450 2C9 = Cytochrome P450 2C9 (Homo sapiens, UniProt P11712); experiment: Inhibition of CYP2C9 in human liver microsomes using diclofenac as substrate measured after 45 mins by LC-MS/MS analysis; format: ADME
BMDM [6] = experiment: Cytotoxicity against Swiss mouse BMDM assessed as reduction in cell viability at 3.21 uM measured after 72 hrs using PLGA nanoparticle incorporated compound by tryphan blue assay; format: cell-based
[7] = Toxicity in BALB/c mouse infected with Leishmania infantum MON-1 promastigotes assessed as histological changes at 10 to 25 mg/kg, ip administered daily for 14 days starting from 28 days post infection using PLGA nanoparticle incorporated compound; format: organism-based; details: in vivo
[8] = Toxicity in BALB/c mouse infected with Leishmania infantum MON-1 promastigotes assessed as weight loss at 10 to 25 mg/kg, ip administered daily for 14 days starting from 28 days post infection using gold nanoparticle incorporated compound; format: organism-based; details: in vivo
Leishmania infantum [9] = experiment: Antileishmanial activity against Leishmania infantum MON-1 intracellular amastigotes infected in Swiss mouse BMDM measured after 48 hrs by Giemsa staining based optical microscopic analysis; format: functional, organism-based; details: Leishmania infantum, MON-1, BMDM, 48 h
[10] = Toxicity in BALB/c mouse infected with Leishmania infantum MON-1 promastigotes assessed as enzymatic alteration in plasma at 10 to 25 mg/kg, ip administered daily for 14 days starting from 28 days post infection using gold nanoparticle incorporated compound; format: organism-based; details: in vivo
Leishmania donovani = experiment: Antileishmanial activity against Leishmania donovani MON-2 intracellular amastigotes; format: functional, organism-based; details: Leishmania donovani, MON-2
BMDM [11] = experiment: Cytotoxicity against Swiss mouse BMDM assessed as reduction in cell viability at 14.3 uM measured after 72 hrs using gold nanoparticle incorporated compound by tryphan blue assay; format: cell-based
Leishmania infantum [12] = experiment: (§1) Antileishmanial activity against Leishmania infantum MON-1 intracellular amastigotes infected in Swiss mouse BMDM assessed as reduction in parasite load at 3.21 uM measured after 48 hrs using PLGA nanoparticle incorporated compound by Giemsa staining based optical microscopic analysis relative to control; format: functional; design: scale not given: the % may be the effect or the level left
[13] = Toxicity in BALB/c mouse infected with Leishmania infantum MON-1 promastigotes assessed as biochemical alteration in serum at 10 to 25 mg/kg, ip administered daily for 14 days starting from 28 days post infection using PLGA nanoparticle incorporated compound; format: organism-based; details: in vivo
[14] = Solubility of the compound in water; format: physicochemical
Leishmania tropica = experiment: Antileishmanial activity against Leishmania tropica MON-102 intracellular amastigotes; format: functional, organism-based; details: Leishmania tropica, MON-102
[15] = Toxicity in BALB/c mouse infected with Leishmania infantum MON-1 promastigotes assessed as biochemical alteration in plasma at 10 to 25 mg/kg, ip administered daily for 14 days starting from 28 days post infection using gold nanoparticle incorporated compound; format: organism-based; details: in vivo
Leishmania infantum [16] = experiment: as §1, with “14.3” for “3.21”, “gold” for “PLGA”; format: functional; design: scale not given: the % may be the effect or the level left
[17] = Mutagenicity in Salmonella typhimurium TA100 at 10 to 75 uM measured after 5 days in absence of S9 fraction by Ames test; format: toxicity; details: salmonella enterica subsp. enterica serovar typhimurium, s9, 120 h
[18] = Solubility of the compound in plasma (unknown origin); format: ADME, cell-free
[19] = Toxicity in BALB/c mouse infected with Leishmania infantum MON-1 promastigotes assessed as histological changes at 10 to 25 mg/kg, ip administered daily for 14 days starting from 28 days post infection using gold nanoparticle incorporated compound; format: organism-based; details: in vivo

Sequence of Cytochrome P450 2C9 (P11712 whole entry): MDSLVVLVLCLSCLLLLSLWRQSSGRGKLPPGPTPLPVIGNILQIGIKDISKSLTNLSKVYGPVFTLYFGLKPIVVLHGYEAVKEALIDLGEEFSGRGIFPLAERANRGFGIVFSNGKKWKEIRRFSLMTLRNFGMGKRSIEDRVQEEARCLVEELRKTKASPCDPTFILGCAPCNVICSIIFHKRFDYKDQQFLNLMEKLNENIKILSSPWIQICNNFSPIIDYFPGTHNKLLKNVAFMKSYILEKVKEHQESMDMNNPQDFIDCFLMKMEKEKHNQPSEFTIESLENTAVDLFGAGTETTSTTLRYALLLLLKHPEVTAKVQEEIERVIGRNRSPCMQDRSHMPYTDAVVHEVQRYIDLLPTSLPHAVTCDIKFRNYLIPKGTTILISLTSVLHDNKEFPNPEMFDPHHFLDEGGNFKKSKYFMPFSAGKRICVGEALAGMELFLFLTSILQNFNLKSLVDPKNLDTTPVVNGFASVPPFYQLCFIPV

With `O=C(CCCCCCC(=O)Nc1ccccc1)NOC(c1ccccc1)(c1ccccc1)c1ccccc1` the Activity (Leishmania infantum [1]) was “inactive”, the Activity [2] was “Non-Toxic” and the Activity [3] was “Non-Toxic”. The Activity [4] was “Non-Toxic”, the Activity [5] was “Non-Toxic” and the IC50 (Cytochrome P450 2C9) was 2520 nM. For the same compound, the Activity (BMDM [6]) was “Non-Toxic”, the Activity [7] was “Non-Toxic” and the Activity [8] was “Non-Toxic”. The IC50 (Leishmania infantum [9]) was 3210 nM, the Activity [10] was “Non-Toxic” and the IC50 (Leishmania donovani) was 2910 nM. For the same compound, the Activity (BMDM [11]) was “Non-Toxic”, the Activity (Leishmania infantum [12]) was 54% and the Activity [13] was “Non-Toxic”. The solubility [14] was less than 100 µg/mL, the IC50 (Leishmania tropica) was 710 nM and the Activity [15] was “Non-Toxic”. The Activity (Leishmania infantum [16]) was 71%, the Activity [17] was “Non-Toxic” and the solubility [18] was “Insoluble”. The Activity [19] was “Non-Toxic”.
